According to ChEMBL document CHEMBL1201862, “PubChem BioAssay data set” (2004):
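Tested at 5 concentrations; 48 h exposure; 96-well plates; endpoints linearly interpolated, else capped at highest concentration. GI50 is the concentration that inhibits growth by half.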 Calls of active or inactive are those of the source. No stated cut-off is given here; in the data, active = GI50 up to about 1.1 µM and inactive = higher.

Legend:
Test in all cases: NCI-60 cell line screen, 48 h
BT-549 = tested on: BT-549
CAKI-1 = tested on: CAKI-1
CCRF-CEM = tested on: CCRF-CEM
EKVX = tested on: EKVX
HL-60 = tested on: HL-60
HOP-62 = tested on: HOP-62
Hs-578T = tested on: Hs-578T
K562 = tested on: K562
MOLT-4 = tested on: MOLT-4
NCI-H226 = tested on: NCI-H226
NCI/ADR-RES = tested on: NCI/ADR-RES
PC-3 = tested on: PC-3
RPMI-8226 = tested on: RPMI-8226
RXF 393 = tested on: RXF 393
SF-295 = tested on: SF-295
SK-MEL-28 = tested on: SK-MEL-28
SK-MEL-2 = tested on: SK-MEL-2
SK-MEL-5 = tested on: SK-MEL-5
SNB-75 = tested on: SNB-75
UACC-257 = tested on: UACC-257

Measured: GI50

OC1(c2ccc(Cl)cc2)c2ccccc2-c2nc3ccccc3n21 (stereo not given)
inactive: BT-549 > 100 µM | CAKI-1 > 100 µM | CCRF-CEM > 100 µM | EKVX 84.7 µM | HL-60 58.9 µM | HOP-62 37.8 µM | Hs-578T > 100 µM | K562 > 100 µM | MOLT-4 > 100 µM | NCI-H226 45.9 µM | NCI/ADR-RES 67.1 µM | PC-3 44.3 µM | RPMI-8226 49.3 µM | RXF 393 29.2 µM | SF-295 97.9 µM | SK-MEL-28 > 100 µM | SK-MEL-2 39.3 µM | SK-MEL-5 > 100 µM | SNB-75 > 100 µM | UACC-257 > 100 µM
